Experimental data as given in article PMC5218480 (PLoS ONE, 2017).

System: MV-4-11 cells
Experiment: Gene expression microarray analysis (Affymetrix PrimeView) and GSEA
Format: cell-based, human
Set-up: RFU PODN (11730768_x_at) / Fold change /veh PODN (11730768_x_at) / RFU LINC00158 (11744669_a_at) / Fold change /veh LINC00158 (11744669_a_at) / RFU DUSP10 (11751237_a_at) / Fold change /veh DUSP10 (11751237_a_at) / RFU ID3 (11757404_x_at) / Fold change /veh ID3 (11757404_x_at) / RFU PLEKHG5 (11737974_s_at) / Fold change /veh PLEKHG5 (11737974_s_at) / RFU LRRC4B (11730491_at) / Fold change /veh LRRC4B (11730491_at) / RFU GIMAP4 (11747438_a_at) / Fold change /veh GIMAP4 (11747438_a_at) / RFU KRT8 (11758183_x_at) / Fold change /veh KRT8 (11758183_x_at) / RFU CNN1 (11734310_a_at) / Fold change /veh CNN1 (11734310_a_at) / RFU VPS37D (11726825_at) / Fold change /veh VPS37D (11726825_at) / RFU C10orf10 (11716522_x_at) / Fold change /veh C10orf10 (11716522_x_at) / RFU KIR2DL2 /// KIR2DL4 /// KIR2DL5A /// KIR2DL5B /// KIR2DS1 /// KIR2DS2 /// KIR2DS3 /// KIR2DS4 /// KIR3DL3 /// KIR3DL3 /// KIR3DS1 (11738374_at) / Fold change /veh KIR2DL2 /// KIR2DL4 /// KIR2DL5A /// KIR2DL5B /// KIR2DS1 /// KIR2DS2 /// KIR2DS3 /// KIR2DS4 /// KIR3DL3 /// KIR3DL3 /// KIR3DS1 (11738374_at) / RFU C1QL1 (11718748_at) / Fold change /veh C1QL1 (11718748_at) / RFU TMPRSS4 (11747572_a_at) / Fold change /veh TMPRSS4 (11747572_a_at) / RFU HAMP (11756126_x_at) / Fold change /veh HAMP (11756126_x_at) / RFU RNFT2 (11725882_a_at) / Fold change /veh RNFT2 (11725882_a_at) / RFU NR4A2 (11747474_a_at) / Fold change /veh NR4A2 (11747474_a_at) / RFU ABCC12 (11746883_a_at) / Fold change /veh ABCC12 (11746883_a_at) / RFU TMEM136 (11760407_x_at) / Fold change /veh TMEM136 (11760407_x_at) / RFU CLDN22 /// WWC2 (11732394_at) / Fold change /veh CLDN22 /// WWC2 (11732394_at) / RFU HLA-DPB1 (11760878_x_at) / Fold change /veh HLA-DPB1 (11760878_x_at) / RFU SPINT1 (11716480_a_at) / Fold change /veh SPINT1 (11716480_a_at) / RFU GAP43 (11754022_s_at) / Fold change /veh GAP43 (11754022_s_at) / RFU A4GNT (11735810_at) / Fold change /veh A4GNT (11735810_at) / RFU PRB3 (11715151_x_at) / Fold change /veh PRB3 (11715151_x_at) / RFU TUBB4B (11761932_at) / Fold change /veh TUBB4B (11761932_at) / RFU CAPN14 (11732068_a_at) / Fold change /veh CAPN14 (11732068_a_at) / RFU TMCC2 (11721928_a_at) / Fold change /veh TMCC2 (11721928_a_at) / RFU IRGQ (11745062_a_at) / Fold change /veh IRGQ (11745062_a_at) / RFU FAM174B (11720279_a_at) / Fold change /veh FAM174B (11720279_a_at) / RFU TMPRSS4 (11748680_a_at) / Fold change /veh TMPRSS4 (11748680_a_at) / RFU FAM212B (11763350_a_at) / Fold change /veh FAM212B (11763350_a_at) / RFU PLEKHG5 (11743358_a_at) / Fold change /veh PLEKHG5 (11743358_a_at) / RFU ZSCAN30 (11745921_a_at) / Fold change /veh ZSCAN30 (11745921_a_at) / RFU CMKLR1 (11741424_a_at) / Fold change /veh CMKLR1 (11741424_a_at) / RFU LOC101060620 /// MAPK8IP1 (11723275_at) / Fold change /veh LOC101060620 /// MAPK8IP1 (11723275_at) / RFU SPTSSB (11747773_x_at) / Fold change /veh SPTSSB (11747773_x_at) / RFU PRSS12 (11739890_at) / Fold change /veh PRSS12 (11739890_at) / RFU BIN1 (11741810_x_at) / Fold change /veh BIN1 (11741810_x_at) / RFU WNT11 (11732464_a_at) / Fold change /veh WNT11 (11732464_a_at) / RFU C10orf10 (11716521_a_at) / Fold change /veh C10orf10 (11716521_a_at) / RFU C5orf56 (11738089_at) / Fold change /veh C5orf56 (11738089_at) / RFU CYB561 (11721691_x_at) / Fold change /veh CYB561 (11721691_x_at) / RFU ANKRD19P (11752326_a_at) / Fold change /veh ANKRD19P (11752326_a_at) / RFU OR2T12 /// OR2T33 /// OR2T8 (11738714_s_at) / Fold change /veh OR2T12 /// OR2T33 /// OR2T8 (11738714_s_at) / RFU VCAN (11748164_a_at) / Fold change /veh VCAN (11748164_a_at) / RFU JSRP1 (11732532_at) / Fold change /veh JSRP1 (11732532_at) / RFU KRTAP10-11 (11738290_x_at) / Fold change /veh KRTAP10-11 (11738290_x_at) / RFU MYO3A (11730013_a_at) / Fold change /veh MYO3A (11730013_a_at) / RFU EBF3 (11725865_a_at) / Fold change /veh EBF3 (11725865_a_at) / RFU CAMK2N1 (11719241_x_at) / Fold change /veh CAMK2N1 (11719241_x_at) / RFU C5orf56 (11738088_a_at) / Fold change /veh C5orf56 (11738088_a_at) / RFU OLFML3 (11715873_a_at) / Fold change /veh OLFML3 (11715873_a_at) / RFU LOC100653217 /// NTM (11731650_a_at) / Fold change /veh LOC100653217 /// NTM (11731650_a_at) / RFU MAPK11 (11762145_a_at) / Fold change /veh MAPK11 (11762145_a_at) / RFU FIZ1 (11724087_x_at) / Fold change /veh FIZ1 (11724087_x_at) / RFU OASL (11726364_x_at) / Fold change /veh OASL (11726364_x_at) / RFU SOX15 (11748057_x_at) / Fold change /veh SOX15 (11748057_x_at) / RFU CD79A (11719716_a_at) / Fold change /veh CD79A (11719716_a_at) / RFU HIST1H1D (11736915_at) / Fold change /veh HIST1H1D (11736915_at) / RFU CASKIN2 (11723855_a_at) / Fold change /veh CASKIN2 (11723855_a_at) / RFU LOC730098 (11760151_x_at) / Fold change /veh LOC730098 (11760151_x_at) / RFU OR4N2 (11742367_at) / Fold change /veh OR4N2 (11742367_at) / RFU PRRT2 (11749266_a_at) / Fold change /veh PRRT2 (11749266_a_at) / RFU SNX32 (11753110_a_at) / Fold change /veh SNX32 (11753110_a_at) / RFU CDHR5 (11726645_a_at) / Fold change /veh CDHR5 (11726645_a_at) / RFU RCAN1 (11760418_a_at) / Fold change /veh RCAN1 (11760418_a_at) / RFU FAM167A (11723789_a_at) / Fold change /veh FAM167A (11723789_a_at) / RFU FAM26E (11764081_at) / Fold change /veh FAM26E (11764081_at) / RFU ISYNA1 (11749810_s_at) / Fold change /veh ISYNA1 (11749810_s_at) / RFU ACY1 (11761880_at) / Fold change /veh ACY1 (11761880_at) / RFU 11764098_at / Fold change /veh 11764098_at / RFU SAMD14 (11745864_x_at) / Fold change /veh SAMD14 (11745864_x_at) / RFU NPB (11741838_a_at) / Fold change /veh NPB (11741838_a_at) / RFU TMPRSS6 (11731388_a_at) / Fold change /veh TMPRSS6 (11731388_a_at) / RFU KRTAP10-2 (11738614_at) / Fold change /veh KRTAP10-2 (11738614_at) / RFU ARHGAP8 /// PRR5-ARHGAP8 (11727945_x_at) / Fold change /veh ARHGAP8 /// PRR5-ARHGAP8 (11727945_x_at) / RFU KRTAP5-7 /// NADSYN1 (11734609_at) / Fold change /veh KRTAP5-7 /// NADSYN1 (11734609_at) / RFU RASL12 (11751679_a_at) / Fold change /veh RASL12 (11751679_a_at) / RFU CDKN2B (11736163_a_at) / Fold change /veh CDKN2B (11736163_a_at) / RFU PRF1 (11729649_at) / Fold change /veh PRF1 (11729649_at) / RFU, ZNF638 /// ZNF638-IT1 / Fold change vs veh, ZNF638 /// ZNF638-IT1 / RFU, PANK3 / Fold change vs veh, PANK3 / RFU, SH3YL1 / Fold change vs veh, SH3YL1 / RFU, ZEB2 / Fold change vs veh, ZEB2 / RFU, NRIP1 / Fold change vs veh, NRIP1 / RFU, PTTG1IP / Fold change vs veh, PTTG1IP / RFU, CAPN2 / Fold change vs veh, CAPN2 / RFU, MED14 / Fold change vs veh, MED14 / RFU, SNORA58 / Fold change vs veh, SNORA58 / RFU, C1orf63 / Fold change vs veh, C1orf63 / RFU, LRRFIP1 / Fold change vs veh, LRRFIP1 / RFU, NDUFAF7 / Fold change vs veh, NDUFAF7 / RFU, SLC12A2 / Fold change vs veh, SLC12A2 / RFU, IBTK / Fold change vs veh, IBTK / RFU, ESF1 / Fold change vs veh, ESF1 / Fold change vs veh, TMEM50B / RFU, TAOK1 / Fold change vs veh, TAOK1 / RFU, ACBD3 / Fold change vs veh, ACBD3 / RFU, TMA16 / Fold change vs veh, TMA16 / RFU, RWDD3 / Fold change vs veh, RWDD3 / RFU, BCAT1 / Fold change vs veh, BCAT1 / RFU, EDEM3 / Fold change vs veh, EDEM3 / RFU, TMEM33 / Fold change vs veh, TMEM33 / RFU, WDR75 / Fold change vs veh, WDR75 / RFU, AHCTF1 / Fold change vs veh, AHCTF1 / RFU, TFRC / Fold change vs veh, TFRC / RFU, ZDHHC17 / Fold change vs veh, ZDHHC17 / RFU, NOM1 / Fold change vs veh, NOM1 / RFU, ARL8B / Fold change vs veh, ARL8B / RFU, ZBTB11 / Fold change vs veh, ZBTB11 / RFU, TAMM41 / Fold change vs veh, TAMM41 / RFU, KIAA1704 /// LOC100996395 / Fold change vs veh, KIAA1704 /// LOC100996395 / RFU, ING1 / Fold change vs veh, ING1 / RFU, TRMT61B / Fold change vs veh, TRMT61B / RFU, FUBP3 / Fold change vs veh, FUBP3 / RFU, TP53 / Fold change vs veh, TP53 / RFU, TNKS2 / Fold change vs veh, TNKS2 / RFU, ZFP14 / Fold change vs veh, ZFP14 / RFU, ACTR2 / Fold change vs veh, ACTR2 / RFU, PPP3R1 / Fold change vs veh, PPP3R1 / RFU, PIK3R1 / Fold change vs veh, PIK3R1 / RFU, HNRNPA1 / Fold change vs veh, HNRNPA1 / RFU, RNF170 / Fold change vs veh, RNF170 / RFU, ZNF28 / Fold change vs veh, ZNF28 / RFU, RNGTT / Fold change vs veh, RNGTT / RFU, OGT / Fold change vs veh, OGT / RFU, BRD1 / Fold change vs veh, BRD1 / RFU, MARS / Fold change vs veh, MARS / RFU, ZNF655 / Fold change vs veh, ZNF655 / RFU, FAHD1 / Fold change vs veh, FAHD1 / RFU, BDP1 / Fold change vs veh, BDP1 / RFU, LRRCC1 / Fold change vs veh, LRRCC1 / RFU, ARID1A / Fold change vs veh, ARID1A / RFU, ZNF146 / Fold change vs veh, ZNF146 / RFU, ZNF330 / Fold change vs veh, ZNF330 / RFU, GPN3 / Fold change vs veh, GPN3 / RFU, C9orf123 / Fold change vs veh, C9orf123 / RFU, N4BP2L2 / Fold change vs veh, N4BP2L2 / RFU, ARFIP1 / Fold change vs veh, ARFIP1 / RFU, FAM179B / Fold change vs veh, FAM179B / RFU, BCL10 / Fold change vs veh, BCL10 / RFU, UHRF1BP1L / Fold change vs veh, UHRF1BP1L / RFU, BET1 / Fold change vs veh, BET1 / RFU, CNOT2 / Fold change vs veh, CNOT2 / RFU, ZNF268 / Fold change vs veh, ZNF268 / Fold change vs veh, ZNF507 / RFU, DGCR2 / Fold change vs veh, DGCR2 / RFU, WDSUB1 / Fold change vs veh, WDSUB1 / Fold change vs veh, HSP90B1 /// MIR3652 / RFU, ADSS / Fold change vs veh, ADSS / RFU, GK / Fold change vs veh, GK / RFU, ZNF148 / Fold change vs veh, ZNF148 / RFU, TAF9 / Fold change vs veh, TAF9 / RFU, SLC1A5 / Fold change vs veh, SLC1A5 / RFU, SLMO2 / Fold change vs veh, SLMO2 / RFU, ABCC4 / Fold change vs veh, ABCC4 / RFU, LOC101060439 /// RAP1B / Fold change vs veh, LOC101060439 /// RAP1B / RFU, RFX7 / Fold change vs veh, RFX7 / RFU, GTPBP10 / Fold change vs veh, GTPBP10 / RFU, CNEP1R1 / Fold change vs veh, CNEP1R1 / RFU, BIVM-ERCC5 /// ERCC5 / Fold change vs veh, BIVM-ERCC5 /// ERCC5 / RFU, ILF3 / Fold change vs veh, ILF3 / RFU 11762660_at / Fold change /veh 11762660_at / RFU VCAN (11757783_s_at) / Fold change /veh VCAN (11757783_s_at) / RFU DDX43 (11728927_at) / Fold change /veh DDX43 (11728927_at) / RFU KRT8 (11758188_x_at) / Fold change /veh KRT8 (11758188_x_at) / RFU NKD1 (11759106_at) / Fold change /veh NKD1 (11759106_at) / RFU SRD5A1 (11742802_a_at) / Fold change /veh SRD5A1 (11742802_a_at) / RFU TPSAB1 /// TPSB2 (11721975_s_at) / Fold change /veh TPSAB1 /// TPSB2 (11721975_s_at) / RFU GSTM3 (11746129_a_at) / Fold change /veh GSTM3 (11746129_a_at) / RFU IL23R (11737362_x_at) / Fold change /veh IL23R (11737362_x_at) / RFU TMEM51 (11727254_a_at) / Fold change /veh TMEM51 (11727254_a_at) / RFU PIWIL2 (11732686_x_at) / Fold change /veh PIWIL2 (11732686_x_at) / RFU ORM1 (11744905_x_at) / Fold change /veh ORM1 (11744905_x_at) / RFU CCDC152 (11743942_at) / Fold change /veh CCDC152 (11743942_at) / RFU ECM1 (11717891_a_at) / Fold change /veh ECM1 (11717891_a_at) / RFU IL23R (11748794_a_at) / Fold change /veh IL23R (11748794_a_at) / RFU TNFAIP8L3 (11732012_x_at) / Fold change /veh TNFAIP8L3 (11732012_x_at) / RFU MBOAT4 (11741988_at) / Fold change /veh MBOAT4 (11741988_at) / RFU 11764193_at / Fold change /veh 11764193_at / RFU TMEM53 (11763286_at) / Fold change /veh TMEM53 (11763286_at) / RFU MAGEB2 (11727129_at) / Fold change /veh MAGEB2 (11727129_at) / RFU TMEM200A (11744735_a_at) / Fold change /veh TMEM200A (11744735_a_at) / RFU CCDC152 (11751479_a_at) / Fold change /veh CCDC152 (11751479_a_at) / RFU FAM211A (11726209_a_at) / Fold change /veh FAM211A (11726209_a_at) / RFU RGS16 (11746705_a_at) / Fold change /veh RGS16 (11746705_a_at) / RFU VCAN (11755009_s_at) / Fold change /veh VCAN (11755009_s_at) / RFU RHOB (11743442_s_at) / Fold change /veh RHOB (11743442_s_at) / RFU RGS16 (11720943_a_at) / Fold change /veh RGS16 (11720943_a_at) / RFU RGS16 (11720944_at) / Fold change /veh RGS16 (11720944_at) / RFU, VPS4B / Fold change vs veh, VPS4B / RFU, CREB1 / Fold change vs veh, CREB1 / RFU, DNAJC13 / Fold change vs veh, DNAJC13 / RFU, GNAQ / Fold change vs veh, GNAQ / RFU, CDK5R1 / Fold change vs veh, CDK5R1 / RFU, ZRANB3 / Fold change vs veh, ZRANB3 / RFU, CUL4A / Fold change vs veh, CUL4A / RFU, CCNY / Fold change vs veh, CCNY / RFU, UFL1 / Fold change vs veh, UFL1 / RFU, COG3 / Fold change vs veh, COG3 / RFU, DIAPH2 / Fold change vs veh, DIAPH2 / RFU, SKA2 / Fold change vs veh, SKA2 / RFU, AFF3 / Fold change vs veh, AFF3 / RFU, LMF1 / Fold change vs veh, LMF1 / RFU, IPO11 / Fold change vs veh, IPO11 / RFU, DFFB / Fold change vs veh, DFFB / RFU, FOXP1 / Fold change vs veh, FOXP1 / RFU, CARD8 / Fold change vs veh, CARD8 / RFU, STRN3 / Fold change vs veh, STRN3 / RFU, ADK / Fold change vs veh, ADK / RFU, RASSF2 / Fold change vs veh, RASSF2 / RFU, WIPF1 / Fold change vs veh, WIPF1 / RFU, LARP1B / Fold change vs veh, LARP1B / RFU, RASA1 / Fold change vs veh, RASA1 / RFU, RB1 / Fold change vs veh, RB1 / RFU, PPFIA1 / Fold change vs veh, PPFIA1 / RFU, MAT2A / Fold change vs veh, MAT2A / RFU, CCT5 / Fold change vs veh, CCT5 / RFU, WDR92 / Fold change vs veh, WDR92 / RFU, CUX1 / Fold change vs veh, CUX1 / RFU, TTC7A / Fold change vs veh, TTC7A / RFU, TMEM135 / Fold change vs veh, TMEM135 / RFU, DEPTOR / Fold change vs veh, DEPTOR / RFU, CPM / Fold change vs veh, CPM / RFU, DNAJB6 / Fold change vs veh, DNAJB6 / RFU, CACNA2D3 / Fold change vs veh, CACNA2D3 / RFU, DTX4 / Fold change vs veh, DTX4 / RFU, TFCP2 / Fold change vs veh, TFCP2 / RFU, GMCL1 /// GMCL1P1 / Fold change vs veh, GMCL1 /// GMCL1P1 / RFU, AEBP2 / Fold change vs veh, AEBP2 / RFU, SNHG1 /// SNORD22 /// SNORD25 /// SNORD26 /// SNORD27 /// SNORD28 /// SNORD29 /// SNORD31 / Fold change vs veh, SNHG1 /// SNORD22 /// SNORD25 /// SNORD26 /// SNORD27 /// SNORD28 /// SNORD29 /// SNORD31 / Fold change (Aza/veh), C12orf56 (ProbeSet 11735607_a_at) / Fold change (ACY-1035/veh), C12orf56 (ProbeSet 11735607_a_at) / Fold change (Aza/veh), FGFR1OP (ProbeSet 11751329_s_at) / Fold change (ACY-1035/veh), FGFR1OP (ProbeSet 11751329_s_at) / Fold change (Aza/veh), VPS36 (ProbeSet 11739960_a_at) / Fold change (ACY-1035/veh), VPS36 (ProbeSet 11739960_a_at) / RFU SYPL1 (11715823_x_at) / Fold change /veh SYPL1 (11715823_x_at) / RFU IGFBP7 (11715501_s_at) / Fold change /veh IGFBP7 (11715501_s_at) / RFU REEP3 (11722064_at) / Fold change /veh REEP3 (11722064_at) / RFU IGLL1 (11728026_x_at) / Fold change /veh IGLL1 (11728026_x_at): dose or concentration left out as unconfirmed
Conditions: ProbeSet 11720269_a_at; LIST B

Nc1ncn([C@@H]2O[C@H](CO)[C@@H](O)[C@H]2O)c(=O)n1 [azacitidine]
Fold change vs veh, IBTK: 0.94
